Measured values published in ChEMBL document CHEMBL3885881, “DrugMatrix”.

Organism: Rattus norvegicus
Test: DrugMatrix - Regimen: Daily Repeat
Assay type: toxicity, organism-based, Sprague-Dawley
Parameters: regimen Daily Repeat, gender Male, age 6-8 weeks
Details: in vivo, po, route oral GAVAGE, vehicle 100 % WATER; for ABSOLUTE BASOPHIL / ABSOLUTE EOSINOPHIL / ABSOLUTE LYMPHOCYTE / ABSOLUTE MONOCYTE / ABSOLUTE SEGMENTED NEUTROPHIL / BASOPHIL / EOSINOPHIL / ERYTHROCYTE COUNT / HEMATOCRIT / LEUKOCYTE COUNT / LYMPHOCYTE / MEAN CORPUSCULAR HEMOGLOBIN / MEAN CORPUSCULAR HEMOGLOBIN CONCENTRATION / MEAN CORPUSCULAR VOLUME / MONOCYTE / NEUTROPHIL / NUCLEATED RED BLOOD CELLS / PLATELET COUNT: tissue Blood; for ALANINE AMINOTRANSFERASE / ALBUMIN / ALKALINE PHOSPHATASE / ASPARTATE AMINOTRANSFERASE / CARBON DIOXIDE / CHLORIDE / CHOLESTEROL / CREATINE PHOSPHOKINASE / CREATININE / LIPASE / POTASSIUM / TOTAL BILIRUBIN / TOTAL PROTEIN / BLOOD UREA NITROGEN: tissue Plasma
[1] = 0 mg/kg, 72 h, dose level Control, time 3 day
[2] = 0 mg/kg, 120 h, dose level Control, time 5 day
[3] = 44 mg/kg, 72 h, dose level Low, time 3 day
[4] = 44 mg/kg, 120 h, dose level Low, time 5 day

For `NC(=O)c1ncn([C@@H]2O[C@H](CO)[C@@H](O)[C@H]2O)n1` [RIBAVIRIN], the “ABSOLUTE BASOPHIL” value [1] was 0 CELLS/uL, the “ABSOLUTE EOSINOPHIL” value [1] was 40 CELLS/uL and the “ABSOLUTE LYMPHOCYTE” value [1] was 13599.5 CELLS/uL. For the same compound, the “ABSOLUTE MONOCYTE” value [1] was 239.33 CELLS/uL, the “ABSOLUTE SEGMENTED NEUTROPHIL” value [1] was 1021.17 CELLS/uL and the BASOPHIL [1] was 0%. For the same compound, the EOSINOPHIL [1] was 0.33%, the “ERYTHROCYTE COUNT” value [1] was 5.71 x10E6/uL and the HEMATOCRIT [1] was 36.35%. The “LEUKOCYTE COUNT” value [1] was 14.9 x10E3/uL, the LYMPHOCYTE [1] was 91% and the “MEAN CORPUSCULAR HEMOGLOBIN” value [1] was 24.62 pg. For the same compound, the “MEAN CORPUSCULAR HEMOGLOBIN CONCENTRATION” value [1] was 38.65 G/DL, the “MEAN CORPUSCULAR VOLUME” value [1] was 63.7 fL and the MONOCYTE [1] was 1.5%. The NEUTROPHIL [1] was 7.17%, the “NUCLEATED RED BLOOD CELLS” value [1] was 0.33 /100WBC and the “PLATELET COUNT” value [1] was 1225.5 x10E3/uL. The “ALANINE AMINOTRANSFERASE” value [1] was 48.5 u/L, the ALBUMIN [1] was 4.18 G/DL and the “ALKALINE PHOSPHATASE” value [1] was 390.83 u/L. For the same compound, the “ASPARTATE AMINOTRANSFERASE” value [1] was 89 u/L, the “CARBON DIOXIDE” value [1] was 24.83 mmol/L and the CHLORIDE [1] was 100.83 MEQ/L. For the same compound, the CHOLESTEROL [1] was 72.5 mg/dL, the “CREATINE PHOSPHOKINASE” value [1] was 503 u/L and the CREATININE [1] was 0.2 mg/dL. For the same compound, the LIPASE [1] was 9.83 u/L, the POTASSIUM [1] was 6.16 MEQ/L and the “TOTAL BILIRUBIN” value [1] was 0.2 mg/dL. For the same compound, the “TOTAL PROTEIN” value [1] was 5.8 G/DL, the “ABSOLUTE BASOPHIL” value [2] was 0 CELLS/uL and the “ABSOLUTE EOSINOPHIL” value [2] was 21 CELLS/uL. The “ABSOLUTE LYMPHOCYTE” value [2] was 14288.5 CELLS/uL, the “ABSOLUTE MONOCYTE” value [2] was 205.33 CELLS/uL and the “ABSOLUTE SEGMENTED NEUTROPHIL” value [2] was 968.5 CELLS/uL. For the same compound, the BASOPHIL [2] was 0%, the EOSINOPHIL [2] was 0.17% and the “ERYTHROCYTE COUNT” value [2] was 5.83 x10E6/uL. The HEMATOCRIT [2] was 36.53%, the “LEUKOCYTE COUNT” value [2] was 15.48 x10E3/uL and the LYMPHOCYTE [2] was 92%. For the same compound, the “MEAN CORPUSCULAR HEMOGLOBIN” value [2] was 24.72 pg, the “MEAN CORPUSCULAR HEMOGLOBIN CONCENTRATION” value [2] was 39.43 G/DL and the “MEAN CORPUSCULAR VOLUME” value [2] was 62.68 fL. The MONOCYTE [2] was 1.33%, the NEUTROPHIL [2] was 6.5% and the “NUCLEATED RED BLOOD CELLS” value [2] was 0.17 /100WBC. For the same compound, the “PLATELET COUNT” value [2] was 1280.5 x10E3/uL, the “ALANINE AMINOTRANSFERASE” value [2] was 50 u/L and the ALBUMIN [2] was 4.28 G/DL. For the same compound, the “ALKALINE PHOSPHATASE” value [2] was 380.17 u/L, the “ASPARTATE AMINOTRANSFERASE” value [2] was 82.67 u/L and the “BLOOD UREA NITROGEN” value [2] was 15.33 mg/dL. For the same compound, the “CARBON DIOXIDE” value [2] was 27.17 mmol/L, the CHLORIDE [2] was 100.33 MEQ/L and the CHOLESTEROL [2] was 60.67 mg/dL. For the same compound, the “CREATINE PHOSPHOKINASE” value [2] was 441.5 u/L, the CREATININE [2] was 0.16 mg/dL and the LIPASE [2] was 9.17 u/L. For the same compound, the POTASSIUM [2] was 6.86 MEQ/L, the “TOTAL BILIRUBIN” value [2] was 0.2 mg/dL and the “TOTAL PROTEIN” value [2] was 6.12 G/DL. For the same compound, the “ABSOLUTE BASOPHIL” value [3] was 0 CELLS/uL, the “ABSOLUTE EOSINOPHIL” value [3] was 33.67 CELLS/uL and the “ABSOLUTE LYMPHOCYTE” value [3] was 13109.33 CELLS/uL. The “ABSOLUTE MONOCYTE” value [3] was 126 CELLS/uL, the “ABSOLUTE SEGMENTED NEUTROPHIL” value [3] was 1164.33 CELLS/uL and the BASOPHIL [3] was 0%. For the same compound, the EOSINOPHIL [3] was 0.33%, the “ERYTHROCYTE COUNT” value [3] was 5.44 x10E6/uL and the HEMATOCRIT [3] was 33.17%. The “LEUKOCYTE COUNT” value [3] was 14.43 x10E3/uL, the LYMPHOCYTE [3] was 91.33% and the “MEAN CORPUSCULAR HEMOGLOBIN” value [3] was 23.47 pg. For the same compound, the “MEAN CORPUSCULAR HEMOGLOBIN CONCENTRATION” value [3] was 38.53 G/DL, the “MEAN CORPUSCULAR VOLUME” value [3] was 60.97 fL and the MONOCYTE [3] was 0.67%. The NEUTROPHIL [3] was 7.67%, the “NUCLEATED RED BLOOD CELLS” value [3] was 0 /100WBC and the “PLATELET COUNT” value [3] was 1365.67 x10E3/uL. For the same compound, the “ALANINE AMINOTRANSFERASE” value [3] was 53 u/L, the ALBUMIN [3] was 4.3 G/DL and the “ALKALINE PHOSPHATASE” value [3] was 371.67 u/L. For the same compound, the “ASPARTATE AMINOTRANSFERASE” value [3] was 93.67 u/L, the “BLOOD UREA NITROGEN” value [3] was 13.67 mg/dL and the “CARBON DIOXIDE” value [3] was 27.67 mmol/L. The CHLORIDE [3] was 101 MEQ/L, the CHOLESTEROL [3] was 71.33 mg/dL and the “CREATINE PHOSPHOKINASE” value [3] was 286.67 u/L. It also gave a CREATININE [3] of 0.17 mg/dL, an LIPASE [3] of 9 u/L and a POTASSIUM [3] of 6.94 MEQ/L. The “TOTAL BILIRUBIN” value [3] was 0.27 mg/dL, the “TOTAL PROTEIN” value [3] was 5.97 G/DL and the “ABSOLUTE BASOPHIL” value [4] was 0 CELLS/uL. For the same compound, the “ABSOLUTE EOSINOPHIL” value [4] was 0 CELLS/uL, the “ABSOLUTE LYMPHOCYTE” value [4] was 17320.33 CELLS/uL and the “ABSOLUTE MONOCYTE” value [4] was 316 CELLS/uL. For the same compound, the “ABSOLUTE SEGMENTED NEUTROPHIL” value [4] was 1397 CELLS/uL, the BASOPHIL [4] was 0% and the EOSINOPHIL [4] was 0%. For the same compound, the “ERYTHROCYTE COUNT” value [4] was 5.46 x10E6/uL, the HEMATOCRIT [4] was 34.3% and the “LEUKOCYTE COUNT” value [4] was 19.03 x10E3/uL. The LYMPHOCYTE [4] was 91%, the “MEAN CORPUSCULAR HEMOGLOBIN” value [4] was 24.7 pg and the “MEAN CORPUSCULAR HEMOGLOBIN CONCENTRATION” value [4] was 39.23 G/DL. For the same compound, the “MEAN CORPUSCULAR VOLUME” value [4] was 62.87 fL, the MONOCYTE [4] was 1.67% and the NEUTROPHIL [4] was 7.33%.
